This passage reports EC50 results from patent US10150760B2, “Compounds for use in preparing heterocyclic triazole agonists of the APJ receptor” (AMGEN INC., priority 2016, dated 2018).

Structures are written as SMILES.

Sequence of human APJ receptor (P35414 whole entry): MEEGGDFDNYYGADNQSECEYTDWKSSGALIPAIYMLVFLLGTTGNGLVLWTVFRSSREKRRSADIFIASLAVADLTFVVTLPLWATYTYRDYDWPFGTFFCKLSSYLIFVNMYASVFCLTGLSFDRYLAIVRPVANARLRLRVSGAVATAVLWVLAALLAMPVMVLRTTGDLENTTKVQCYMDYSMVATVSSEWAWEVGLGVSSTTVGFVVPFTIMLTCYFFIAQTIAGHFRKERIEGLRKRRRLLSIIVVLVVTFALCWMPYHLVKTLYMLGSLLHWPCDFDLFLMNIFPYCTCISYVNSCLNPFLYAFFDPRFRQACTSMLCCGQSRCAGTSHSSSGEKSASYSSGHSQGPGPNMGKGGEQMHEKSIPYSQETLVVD

This experiment addresses human APJ receptor (Homo sapiens (Human), UniProt P35414). The experiment can be described thus: [35S]GTPγS binding assay on membranes from CHO cells stably expressing human APJ receptor. Type of experiment: biochemical. Particulars: read-out: Activity hAPJ SPA EC50 IP. As for the experimental part: The human APJ receptor was cloned by polymerase chain reaction and the gene encoding the receptor was subcloned in pFLAG-CMV™-3 expression vector (Sigma, Saint Louis, Mo. USA) in-house at Amgen. A GTPγS binding assay was performed on membranes prepared from CHO cells stably expressing human APJ receptor. The optimum experimental conditions for the concentrations of GDP, MgCl2, and NaCl in the assay buffer were initially determined. The assay was performed in assay buffer [20 mM HEPES, pH 7.5, 5 mM MgCl2, and 0.1% (w/v) BSA with 200 mM NaCl, 3 μM GDP] and membranes expressing human APJ receptor/well along with WGA PS beads. The reaction was initiated by addition of 0.2 nM [^35S]GTPγS (Perkin Elmer Life and Analytical Sciences, Waltham USA) in the absence or presence of various ligands and incubated at RT for 90 min. Nonspecific binding was determined in the presence of 100 μM GTPγS and was always less than 0.2% of total binding. All the results presented are means of several independent experiments and analyzed by non-linear regression methods using commercially available program Prism (GraphPad, San Diego, Calif.) to obtain EC50 detailed in Table 38.
`COc1cccc(OC)c1-n1c(NS(=O)(=O)[C@@H](C)[C@H](OC)c2ncc(C)cn2)nnc1[C@@H]1CCNC1` (mixture of isomers) [Example 45.0, (1R,2S)-N-(4-(2,6-Dimethoxyphenyl)-5-((R)-pyrrolidin-3-yl)-4H-1,2,4-triazol-3-yl)-1-methoxy-1-(5-methylpyrimidin-2-yl)propane-2-sulfonamide and (1R,2S)-N-(4-(2,6-dimethoxyphenyl)-5-((S)-pyrrolidin-3-yl)-4H-1,2,4-triazol-3-yl)-1-methoxy-1-(5-methylpyrimidin-2-yl)propane-2-sulfonamide]: the concentration giving a half-maximal response (EC50) was determined as 510 nM.

Turning to `COc1cccc(OC)c1-n1c(NS(=O)(=O)[C@@H](C)[C@H](C)c2ncc(C)cn2)nnc1[C@H]1CCCO1` (mixture of isomers) [Example 48.0, (2S,3R)-N-(4-(2,6-dimethoxyphenyl)-5-((R)-tetrahydrofuran-2-yl)-4H-1,2,4-triazol-3-yl)-3-(5-methylpyrimidin-2-yl)butane-2-sulfonamide and (2S,3R)-N-(4-(2,6-dimethoxyphenyl)-5-((S)-tetrahydrofuran-2-yl)-4H-1,2,4-triazol-3-yl)-3-(5-methylpyrimidin-2-yl)butane-2-sulfonamide], the concentration for a half-maximal effect (EC50) was 3.9 nM.

With `COc1cccc(OC)c1-n1c(NS(=O)(=O)[C@@H](C)[C@H](C)c2ncc(Cl)cn2)nnc1[C@H]1CCO1` (mixture of isomers) [Example 142.0, (2S,3R)-3-(5-chloropyrimidin-2-yl)-N-(4-(2,6-dimethoxyphenyl)-5-((R)-oxetan-2-yl)-4H-1,2,4-triazol-3-yl)butane-2-sulfonamide and (2S,3R)-3-(5-chloropyrimidin-2-yl)-N-(4-(2,6-dimethoxyphenyl)-5-((S)-oxetan-2-yl)-4H-1,2,4-triazol-3-yl)butane-2-sulfonamide], the EC50 was 1.9 nM.

As for `COc1cccc(OC)c1-n1c(NS(=O)(=O)CCc2ccc(F)cc2C#N)nnc1[C@@H]1CCCO1` (mixture of isomers) [Example 146.0, (S)-2-(2-Cyano-4-fluorophenyl)-N-(4-(2,6-dimethoxyphenyl)-5-(tetrahydrofuran-2-yl)-4H-1,2,4-triazol-3-yl)ethanesulfonamide and (R)-2-(2-cyano-4-fluorophenyl)-N-(4-(2,6-dimethoxyphenyl)-5-(tetrahydrofuran-2-yl)-4H-1,2,4-triazol-3-yl)ethanesulfonamide], the half-maximal effective concentration (EC50) came out at 450 nM.

As for `COc1cnc([C@@H](C)[C@H](C)S(=O)(=O)Nc2nnc([C@@H]3CC[C@H](C)O3)n2-c2c(OC)cccc2OC)nc1` (mixture of isomers) [Example 249.0, (2S,3R)-N-(4-(2,6-dimethoxyphenyl)-5-((2R,5R)-5-methyltetrahydro-2-furanyl)-4H-1,2,4-triazol-3-yl)-3-(5-methoxy-2-pyrimidinyl)-2-butanesulfonamide and (2S,3R)-N-(4-(2,6-dimethoxyphenyl)-5-((2S,5S)-5-methyltetrahydro-2-furanyl)-4H-1,2,4-triazol-3-yl)-3-(5-methoxy-2-pyrimidinyl)-2-butanesulfonamide], the EC50 worked out at 540 nM.

For the molecule `COCC1(n2c(NS(=O)(=O)[C@@H](C)[C@H](OC)c3ncc(Cl)cn3)nnc2[C@H]2CCOC2)CC1` (mixture of isomers) [Example 303.0, (1R,2S)-1-(5-chloro-2-pyrimidinyl)-1-methoxy-N-(4-(1-(methoxymethyl)cyclopropyl)-5-((3R)-tetrahydro-3-furanyl)-4H-1,2,4-triazol-3-yl)-2-propanesulfonamide and (1R,2S)-1-(5-chloro-2-pyrimidinyl)-1-methoxy-N-(4-(1-(methoxymethyl)cyclopropyl)-5-((3S)-tetrahydro-3-furanyl)-4H-1,2,4-triazol-3-yl)-2-propanesulfonamide], the EC50 came to 340 nM.

With `COCC1(n2c(NS(=O)(=O)[C@@H](C)[C@H](OC)c3ncc(Cl)cn3)nnc2[C@H]2COCCO2)CC1` (mixture of isomers) [Example 304.0, (1R,2S)-N-(5-((S)-1,4-dioxan-2-yl)-4-(1-(methoxymethyl)cyclopropyl)-4H-1,2,4-triazol-3-yl)-1-(5-chloropyrimidin-2-yl)-1-methoxypropane-2-sulfonamide and (1R,2S)-N-(5-((R)-1,4-dioxan-2-yl)-4-(1-(methoxymethyl)cyclopropyl)-4H-1,2,4-triazol-3-yl)-1-(5-chloropyrimidin-2-yl)-1-methoxypropane-2-sulfonamide], the concentration for a half-maximal effect (EC50) stood at 210 nM.

Regarding `COc1cccc(OC)c1-n1c(NS(=O)(=O)CCc2ncc(Cl)cn2)nnc1[C@@H]1COCCO1` (mixture of isomers) [Example 387.0, 2-(5-chloro-2-pyrimidinyl)-N-(4-(2,6-dimethoxyphenyl)-5-((2R)-1,4-dioxan-2-yl)-4H-1,2,4-triazol-3-yl)ethanesulfonamide and 2-(5-chloro-2-pyrimidinyl)-N-(4-(2,6-dimethoxyphenyl)-5-((2S)-1,4-dioxan-2-yl)-4H-1,2,4-triazol-3-yl)ethanesulfonamide], the half-maximal effective concentration (EC50) came to 48 nM.

As to `COc1cccc(OC)c1-n1c(NS(=O)(=O)CCc2ccc(Cl)cc2)nnc1[C@@H]1CCCO1` (racemic) [Example 143.0, (S)-2-(4-Chlorophenyl)-N-(4-(2,6-dimethoxyphenyl)-5-(tetrahydrofuran-2-yl)-4H-1,2,4-triazol-3-yl)ethanesulfonamide and (R)-2-(4-chlorophenyl)-N-(4-(2,6-dimethoxyphenyl)-5-(tetrahydrofuran-2-yl)-4H-1,2,4-triazol-3-yl)ethanesulfonamide], the EC50 worked out at 120 nM.

Consider `CO[C@H]1CCC[C@@H](OC)[C@@H]1n1c(NS(=O)(=O)[C@@H](C)[C@H](C)c2ncc(C)cn2)nnc1[C@@H]1CCCO1` (single isomer, unassigned) [Example 3.0, (2S,3R)-N-(4-((1r,2R,6S)-2,6-Dimethoxycyclohexyl)-5-((2S)-tetrahydro-2-furanyl)-4H-1,2,4-triazol-3-yl)-3-(5-methyl-2-pyrimidinyl)-2-butanesulfonamide or (2S,3R)-N-(4-((1r,2R,6S)-2,6-dimethoxycyclohexyl)-5-((2R)-tetrahydro-2-furanyl)-4H-1,2,4-triazol-3-yl)-3-(5-methyl-2-pyrimidinyl)-2-butanesulfonamide], for which the EC50 worked out at 1200 nM.

As to `COc1cccc(OC)c1-n1c(NS(=O)(=O)CCc2ccc(Cl)cc2)nnc1[C@H]1CCOC1` (single isomer, unassigned) [Example 9.0, (R)-2-(4-Chlorophenyl)-N-(4-(2,6-dimethoxyphenyl)-5-(tetrahydrofuran-3-yl)-4H-1,2,4-triazol-3-yl)ethanesulfonamide or (S)-2-(4-chlorophenyl)-N-(4-(2,6-dimethoxyphenyl)-5-(tetrahydrofuran-3-yl)-4H-1,2,4-triazol-3-yl)ethanesulfonamide], the EC50 worked out at 210 nM.

With `COc1cccc(OC)c1-n1c(NS(=O)(=O)[C@@H](C)[C@H](C)c2ncc(C#N)cn2)nnc1[C@@H]1CCCO1` (single isomer, unassigned) [Example 24.0, (2S,3R)-3-(5-Cyano-2-pyrimidinyl)-N-(4-(2,6-dimethoxyphenyl)-5-((2S)-tetrahydro-2-furanyl)-4H-1,2,4-triazol-3-yl)-2-butanesulfonamide or (2S,3R)-3-(5-cyano-2-pyrimidinyl)-N-(4-(2,6-dimethoxyphenyl)-5-((2R)-tetrahydro-2-furanyl)-4H-1,2,4-triazol-3-yl)-2-butanesulfonamide], the half-maximal effective concentration (EC50) came to 4.5 nM.

In the case of `COc1ncnc(OC)c1-n1c(NS(=O)(=O)[C@@H](C)[C@H](C)c2ccc(Cl)cn2)nnc1[C@@H]1CCOC1` (single isomer, unassigned) [Example 37.0, (2S,3R)-3-(5-chloro-2-pyridinyl)-N-(4-(4,6-dimethoxy-5-pyrimidinyl)-5-((3S)-tetrahydro-3-furanyl)-4H-1,2,4-triazol-3-yl)-2-butanesulfonamide or (2S,3R)-3-(5-chloro-2-pyridinyl)-N-(4-(4,6-dimethoxy-5-pyrimidinyl)-5-((3R)-tetrahydro-3-furanyl)-4H-1,2,4-triazol-3-yl)-2-butanesulfonamide], the concentration for a half-maximal effect (EC50) worked out at 12 nM.

`COc1ncnc(OC)c1-n1c(NS(=O)(=O)[C@@H](C)[C@H](C)c2ccc(Cl)cn2)nnc1[C@H]1CCOC1` (single isomer, unassigned) [Example 38.0, (2S,3R)-3-(5-chloro-2-pyridinyl)-N-(4-(4,6-dimethoxy-5-pyrimidinyl)-5-((3R)-tetrahydro-3-furanyl)-4H-1,2,4-triazol-3-yl)-2-butanesulfonamide or (2S,3R)-3-(5-chloro-2-pyridinyl)-N-(4-(4,6-dimethoxy-5-pyrimidinyl)-5-((3S)-tetrahydro-3-furanyl)-4H-1,2,4-triazol-3-yl)-2-butanesulfonamide]: the concentration giving a half-maximal response (EC50) was 19 nM.

On to `COc1cccc(OC)c1-n1c(NS(=O)(=O)[C@@H](C)[C@H](C)c2ncc(Cl)cn2)nnc1[C@@H]1COCCO1` (single isomer, unassigned) [Example 39.0, (2S,3R)-3-(5-chloro-2-pyrimidinyl)-N-(4-(2,6-dimethoxyphenyl)-5-((2R)-1,4-dioxan-2-yl)-4H-1,2,4-triazol-3-yl)-2-butanesulfonamide or (2S,3R)-3-(5-chloro-2-pyrimidinyl)-N-(4-(2,6-dimethoxyphenyl)-5-((2S)-1,4-dioxan-2-yl)-4H-1,2,4-triazol-3-yl)-2-butanesulfonamide], for which the half-maximal effective concentration (EC50) amounted to 5.3 nM.
